This is an account of results in US20080026996A1, “Selective Vpac2 Receptor Reptide Agonists” (ELI LILLY AND COMPANY, priority 2004, published 2008).

The target of assay [1] is T1, human VPAC2 (Homo sapiens, UniProt P41587).
T1 construct: expressed in transfected cells
T1 sequence (P41587 24-438): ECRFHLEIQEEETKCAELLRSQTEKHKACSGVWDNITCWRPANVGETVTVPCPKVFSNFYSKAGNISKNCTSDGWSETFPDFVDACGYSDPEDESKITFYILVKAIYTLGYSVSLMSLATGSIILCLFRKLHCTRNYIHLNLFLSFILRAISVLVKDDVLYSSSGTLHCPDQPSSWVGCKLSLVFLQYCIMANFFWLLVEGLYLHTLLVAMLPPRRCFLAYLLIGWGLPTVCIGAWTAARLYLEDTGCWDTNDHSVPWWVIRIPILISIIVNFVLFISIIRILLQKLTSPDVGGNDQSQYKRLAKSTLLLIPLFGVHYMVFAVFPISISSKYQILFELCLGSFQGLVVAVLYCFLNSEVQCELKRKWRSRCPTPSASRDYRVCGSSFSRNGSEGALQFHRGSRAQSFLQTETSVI
In words: Alpha screen cAMP in vitro potency, human VPAC2 receptor. Format: cell-based. The method in brief:
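Cells were detached with enzyme-free dissociation buffer, washed into stimulation buffer and used at 50,000 cells per data point. Stimuli and AlphaScreen acceptor beads were added for 60 minutes, then lysis buffer with donor beads for 60 to 120 minutes; the AlphaScreen signal reports intracellular cAMP.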

The next assay deals with T2, human PAC1 (Homo sapiens, UniProt P41586).
T2 sequence (P41586 21-468): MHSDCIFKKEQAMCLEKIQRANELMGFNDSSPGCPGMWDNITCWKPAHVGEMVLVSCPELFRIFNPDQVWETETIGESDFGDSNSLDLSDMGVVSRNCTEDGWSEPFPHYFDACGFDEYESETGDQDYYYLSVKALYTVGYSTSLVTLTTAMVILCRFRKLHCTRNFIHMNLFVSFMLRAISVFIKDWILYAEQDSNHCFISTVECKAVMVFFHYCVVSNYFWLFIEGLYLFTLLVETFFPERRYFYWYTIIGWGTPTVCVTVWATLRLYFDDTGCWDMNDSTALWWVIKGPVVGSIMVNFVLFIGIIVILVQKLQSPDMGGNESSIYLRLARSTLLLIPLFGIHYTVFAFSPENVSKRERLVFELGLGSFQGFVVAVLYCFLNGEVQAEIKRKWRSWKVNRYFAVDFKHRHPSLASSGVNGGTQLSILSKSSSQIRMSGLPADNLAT
In words: Filter binding assay, membranes of cells transiently transfected with human PAC1, 125I-labeled PACAP-27 tracer (Table 2). Also noted: expressed in transfected cells. The method in brief:
(§1)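 Membranes 2.5 μg/well; tracer ~40000 cpm; buffer 25 mM HEPES pH 7.4, 0.5% protease-free BSA; 1 h incubation, shaking. Glass-fibre filtration (0.5% polyethyleneamine presoak, 0.2% BSA block), 3× HEPES wash, dry 1 h at 60° C, scintillation count.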

A further assay deals with Normal Wistar rats. The assay is described as follows: Intravenous glucose tolerance test (IVGTT). The settings on record: for % increase AUC: Dose = 0.5 μg/kg / % increase AUC: Dose = 10 μg/kg: IVGTT, insulin. Format: in vivo, rat. The method, then:
Intravenous glucose tolerance test (IVGTT): Normal Wistar rats are fasted overnight and are anesthetized prior to the experiment. A blood sampling catheter is inserted into the rats. The compound is given in the jugular vein. Blood samples are taken from the carotid artery. A blood sample is drawn immediately prior to the injection of glucose along with the compound. After the initial blood sample, glucose mixed with compound is injected intravenously (i.v.). A glucose challenge of 0.5 g/kg body weight is given, injecting a total of 1.5 mL vehicle with glucose and agonist per kg body weight. The peptide concentration vary to produce the desired dose in μg/kg. Blood samples are drawn at 2, 4, 6 and 10 minutes after giving glucose. The control group of animals receives the same vehicle along with glucose, but with no compound added. In some instances, a 30 minute post-glucose blood sample is drawn. Aprotinin is added to the blood sample (250 kIU/ml blood). The serum is then analyzed for glucose and insulin using standard methodologies.
The assay uses a formulated and calibrated peptide stock in PBS. Normally, this stock is a prediluted 100 μM stock. However, a more concentrated stock with approximately 1 mg agonist per mL is used. The specific concentration is always known. Variability in the maximal response is mostly due to variability in the vehicle dose.

The target in assay [2] is T1, human VPAC2. In words: Filter binding assay, membranes of stable VPAC2 cell line, 125I-labeled VIP tracer (Table 2). The method in brief: as §1
In another assay the target is T3, human VPAC1 (Homo sapiens, UniProt P32241).
T3 sequence (P32241 31-457): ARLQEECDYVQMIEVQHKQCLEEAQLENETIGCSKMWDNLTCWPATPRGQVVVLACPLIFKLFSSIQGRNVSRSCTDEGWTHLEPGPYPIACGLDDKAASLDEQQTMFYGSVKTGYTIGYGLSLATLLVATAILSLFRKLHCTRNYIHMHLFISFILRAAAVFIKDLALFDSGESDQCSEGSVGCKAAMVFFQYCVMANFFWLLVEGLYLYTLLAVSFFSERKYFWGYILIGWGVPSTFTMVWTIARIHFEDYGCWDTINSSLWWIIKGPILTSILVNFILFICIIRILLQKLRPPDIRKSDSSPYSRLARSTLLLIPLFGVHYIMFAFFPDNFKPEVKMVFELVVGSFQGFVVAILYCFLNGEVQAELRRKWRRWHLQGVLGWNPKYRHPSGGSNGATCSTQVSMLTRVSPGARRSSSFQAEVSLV
In words: Filter binding assay, membranes of cells transiently transfected with human VPAC1, 125I-labeled VIP tracer (Table 2). Also noted: expressed in transfected cells. The essentials: as §1

Where [3] appears, read: cAMP generation, single result from two analyses performed in a single run, read-out: Human VPAC2 Receptor: Alpha Screen EC50.
Where [4] appears, read: read-out: Human PAC1 Receptor Binding.
[5] abbreviates: read-out: Human VPAC2 Receptor Binding.
Where [6] appears, read: read-out: Human VPAC1 Receptor Binding.

Where “and” joins values, the source holds several entries; their conditions need not be identical. Equal values may be shown once. Read-outs that look alike come from different tables or passages of the source. Where a SMILES comes first, the peptide text is derived from it. Where no end group is shown, it is not given here. [ ]: non-standard residue; d: D form. The star is where a group is joined. Hexanoyl = CCCCCC(=O)*; Aib = CC(C)(N)C(=O)O

“H-MHSDAVFTDNYTRLRKQVAAKKYLQSIKNKRYGGPSSGAPPPS [Agonist P104]” gave an EC50 on human VPAC2 [1] of 0.27 nM. Also, the IC50 on human PAC1 was 117 nM; at human VPAC2 [2], 0.68 nM; on human VPAC1, 301 nM. The “% increase AUC: Dose = 0.5 μg/kg” value with Normal Wistar rats was 142% and 205%. The “% increase AUC: Dose = 10 μg/kg” value in the assay with Normal Wistar rats is 198% and 370%.

Take “Hexanoyl-HSDAVFTDNYTRLR[Aib]QVAA[Aib]KYLQSIKNKRYGGPSSGAPPPS [Agonist P261]”: the EC50 at human VPAC2 [1] (setting [3]) was 0.09 nM. Besides, the IC50 was above 25000 nM at human PAC1 (setting [4]), 0.2 nM on human VPAC2 [2] (setting [5]) and 1000 nM at human VPAC1 (setting [6]). Besides, the “% increase AUC: Dose = 0.5 μg/kg” value in the assay on Normal Wistar rats was determined as 136%. The “% increase AUC: Dose = 10 μg/kg” value in the assay on Normal Wistar rats is 320%.

For the compound “Hexanoyl-HSDAVFTDNYTRLRKQVAAKKYLQSIKNKRYGGPSSGAPPPS [Agonist P31]”, the EC50 on human VPAC2 [1] (setting [3]) turned out to be 0.13 nM. The IC50 at human PAC1 (setting [4]) came out at 406 nM; at human VPAC2 [2] (setting [5]), 0.23 nM; at human VPAC1 (setting [6]) it was 145 nM. Besides, the “% increase AUC: Dose = 0.5 μg/kg” value with Normal Wistar rats is recorded as 250%.

“Hexanoyl-HSDAVFTDNYTRLR[Aib]QVAAK[Aib]YLQSIKNKRYGGPSSGAPPPS [Agonist P264]”: the EC50 at human VPAC2 [1] (setting [3]) is 0.1 nM. Further, the IC50 at human PAC1 (setting [4]) is above 25000 nM; on human VPAC2 [2] (setting [5]) it was 0.88 nM; at human VPAC1 (setting [6]), above 3000 nM. Moreover, the “% increase AUC: Dose = 0.5 μg/kg” value with Normal Wistar rats was 10%. Besides, the “% increase AUC: Dose = 10 μg/kg” value with Normal Wistar rats turned out to be 95%.

As for “Hexanoyl-HSDAVFTDNYTRLLAKLALQKYLQSIKNKRYGGPSSGAPPPS [Agonist P119]”, the EC50 at human VPAC2 [1] (setting [3]) was 0.42 nM. In addition, on human PAC1 (setting [4]), the IC50 was above 25000 nM. In the assay on Normal Wistar rats, the “IVGTT ED50” value is 0.3 µg/kg, the “% increase AUC: Dose = 0.5 μg/kg” value came to 118% and the “% increase AUC: Dose = 10 μg/kg” value stood at 240%. Also, the IC50 at human VPAC2 [2] (setting [5]) was 0.48 nM. Moreover, on human VPAC1 (setting [6]), the IC50 is above 3000 nM.

Regarding `CCCCCC(=O)N[C@@H](Cc1c[nH]cn1)C(=O)N[C@@H](CO)C(=O)N[C@@H](CC(=O)O)C(=O)N[C@@H](C)C(=O)N[C@H](C(=O)N[C@@H](Cc1ccccc1)C(=O)N[C@H](C(=O)N[C@@H](CC(=O)O)C(=O)N[C@@H](CC(N)=O)C(=O)N[C@@H](Cc1ccc(O)cc1)C(=O)N[C@H](C(=O)N[C@@H](CCCNC(=N)N)C(=O)N[C@@H](CC(C)C)C(=O)N[C@@H](CCCNC(=N)N)C(=O)NC(C)(C)C(=O)N[C@@H](CCC(N)=O)C(=O)N[C@@H](CC(C)C)C(=O)N[C@@H](C)C(=O)N[C@@H](C)C(=O)NC(C)(C)C(=O)N[C@@H](CCCCN)C(=O)N[C@@H](Cc1ccc(O)cc1)C(=O)N[C@@H](CC(C)C)C(=O)N[C@@H](CCC(N)=O)C(=O)N[C@@H](CO)C(=O)N[C@H](C(=O)N[C@@H](CCCCN)C(=O)N[C@@H](CC(N)=O)C(=O)N[C@@H](CCCCN)C(=O)NCC(=O)NCC(=O)N1CCC[C@H]1C(=O)N[C@@H](CO)C(=O)N[C@@H](CO)C(=O)NCC(=O)N[C@@H](C)C(=O)N1CCC[C@H]1C(=O)N1CCC[C@H]1C(=O)N1CCC[C@H]1C(=O)N[C@@H](CO)C(=O)O)[C@@H](C)CC)[C@@H](C)O)[C@@H](C)O)C(C)C` [Agonist P292] (Hexanoyl-HSDAVFTDNYTRLR[Aib]QLAA[Aib]KYLQSIKNKGGPSSGAPPPS-OH; C-terminus assumed), the EC50 at human VPAC2 [1] (setting [3]) came out at 0.23 nM. Besides, the IC50 on human PAC1 (setting [4]) was above 25000 nM; on human VPAC2 [2] (setting [5]), 0.3 nM; at human VPAC1 (setting [6]), above 3000 nM. Further, the “% increase AUC: Dose = 0.5 μg/kg” value in the assay on Normal Wistar rats is on record as 292%. Moreover, the “% increase AUC: Dose = 10 μg/kg” value in the assay with Normal Wistar rats is on record as 370%.

One may read the EC50 as the concentration needed to bring the measured effect to its halfway point.
